Data set [1] deals with T1, LexAPa S125A (Pseudomonas aeruginosa, UniProt P37452, S125A).
T1 construct: Concerning full-length LexAPa ^S125A, a biphasic melting curve was obtained for the pure protein; made in house; host or cells: E. coli BL21(DE3)
Briefly: Isothermal titration calorimetry on LexAPa S125A. It is filed as binding, P. aeruginosa. As for the experimental part: To investigate deeper the binding of A12 to the two members of the P. aeruginosa SOS complex, ITC was performed on RecAPa and LexAPa ^S125A (Figure D,E). The integrated binding isotherms of both proteins were best fitted by a “one set of sites” model.
64 μM RecAPa and 58.5 μM LexAPa ^S125A were titrated with the selected compound (2.5 mM solution) using a Microcal PEAQ-ITC instrument (Malvern Panalytical) at 25 °C with a stirring rate of 750 rpm. Proteins and the ligand were dissolved in ITC Buffer (20 mM Tris–HCl, 150 mM NaCl, 5% v/v DMSO, pH 7.5). An initial 0.4 μL injection (excluded from data analysis) was followed by 24 injections of 1.5 μL with a spacing of 150 s between each addition. Blank experiments were performed by injecting the titrant compound in a protein-devoid ITC Buffer. Blank curves were subtracted from all of the experiments. Data were analyzed by using the MicroCal PEAQ-ITC Evaluation software (Malvern Panalytical). Integrated heat signals were fitted by a “one set of sites” binding model to obtain enthalpy changes (ΔH), dissociation constants (K D), and stoichiometry of binding.

Data set [2] addresses T2, LexAPa (Pseudomonas aeruginosa, UniProt P37452).
T2 construct: different LexAPa variants (FlAsH-LexAPa ^CTD vs full-length LexAPa) were used in the two assays; made in house; host or cells: E. coli BL21(DE3)
Briefly: ESI-MS analysis of LexAPa preincubated with A12. The conditions noted are these: 2 mM A12, 2 h at 25 °C; disulfide bond at Cys104, lost with 5 mM DTT. Type of data set: binding, P. aeruginosa. As for the experimental part: Then, ESI-MS analysis was carried out on both RecAPa and LexAPa alone and preincubated with A12 (referred to as RecAPa-A12 and LexAPa-A12, respectively).
MS analysis was carried out on 5 μL samples of compound A12 (2 mM), of the proteins 6His-LexAPa and 6His-RecAPa (50 μM), and of the same proteins incubated with 2 mM A12 (2 h incubation at 25 °C, 10% v/v DMSO in 100 mM NaHCO3 pH 7.0). Aliquots of the latter samples were treated with 5 mM dithiothreitol (DTT) for 1 h at 25 °C before being buffer-exchanged in 100 mM NaHCO3 at pH 7.0. Samples were analyzed by an electrospray ionization (ESI) mass spectrometer equipped with a Xevo G2-XS ESI-Q-TOF mass spectrometer (Waters Corporation, Milford, Massachusetts, USA). Measurements were carried out at 1.5–1.8 kV capillary voltage and 30–40 V cone voltage.
Tryptic digestion was obtained at a 1:20 trypsin to protein ratio (by weight) after the incubation of the proteins (6His-LexAPa and 6His-RecAPa) with chemical compound A12. The reaction was left at 37 °C overnight and then stopped by freezing at – 20 °C. Proteolytic mixtures were analyzed by LC–MS, using an Agilent AdvanceBio Peptide Map column (2.1 × 150 mm × 2.7 μm; Santa Clara, CA, USA) connected to an Acquity H-Class instrument (Waters Corporation, Milford, Massachusetts, USA). […]

In data set [3] the test system is THP-1-derived macrophages. Briefly: Cytotoxicity assessment by MTT assay, THP-1-derived macrophages. Type of data set: cell-based, Human. Conditions: combination of ciprofloxacin 0.5 μg/mL and A12 100 μg/mL, 3 h. The protocol:
A549 cells were seeded in flat-bottom 96-well plates at 5 × 10^4 cells/well. THP-1 monocytes were differentiated into macrophages using PMA as described above, rested in PMA-free medium, detached by trypsinization, and seeded at 5 × 10^4 cells/well. Plates were incubated overnight to allow cell attachment. […] Test medium was then removed and replaced with fresh medium containing 0.5 mg/mL 3-(4,5-dimethylthiazol-2-yl)-2,5-diphenyltetrazolium bromide (MTT). After a 2 h incubation, the medium was discarded, formazan crystals were solubilized with 100 μL of DMSO, and absorbance was measured at 570 nm using a spectrophotometer (Varioskan LUX Multimode Microplate Reader, Thermo Fisher Scientific). Cell viability was expressed as a percentage relative to the untreated controls.

In data set [4] the test system is P. aeruginosa PAO1 on THP-1-derived macrophages. The data set can be described thus: P. aeruginosa PAO1 colonization of THP-1-derived macrophages. Type of data set: cell-based. As for the experimental part:
THP-1-derived macrophages were generated from THP-1 monocytes as previously described, with minor modifications. , Briefly, THP-1 monocytes were washed three times with antibiotic-free RPMI 1640 medium and resuspended in complete antibiotic-free RPMI 1640 supplemented with 300 nM phorbol 12-myristate 13-acetate (PMA). Cells were incubated for 24 h, followed by a 48 h rest period in PMA-free RPMI 1640 prior to use in subsequent experiments. […] PMA-differentiated THP-1-derived macrophages were similarly trypsinized and seeded into 24-well plates at 5 × 10^5 cells/well in complete, antibiotic-free RPMI supplemented with FBS. Cells were incubated overnight to allow for attachment. Immediately prior to infection, the medium was aspirated, and cells were washed three times with Dulbecco’s phosphate-buffered saline. […] Infection was synchronized by centrifuging plates at 1000g for 1 min. […] Following the infection period, the medium was aspirated, and cells were washed three times with DPBS to remove unattached bacteria and residual test compounds. […] In both cases, the resulting lysates were serially diluted in DPBS and plated on tryptic soy agar plates. Plates were incubated at 37 °C for 24 h, after which colonies were enumerated. Bacterial burden was expressed as the CFU per well.

Results on one molecule are retold here after article PMC12706794, “Identification and Characterization of a Small-Molecule Inhibitor of the Pseudomonas aeruginosa SOS Response” (ACS Infectious Diseases, 2025).

T2 sequence (P37452 whole entry): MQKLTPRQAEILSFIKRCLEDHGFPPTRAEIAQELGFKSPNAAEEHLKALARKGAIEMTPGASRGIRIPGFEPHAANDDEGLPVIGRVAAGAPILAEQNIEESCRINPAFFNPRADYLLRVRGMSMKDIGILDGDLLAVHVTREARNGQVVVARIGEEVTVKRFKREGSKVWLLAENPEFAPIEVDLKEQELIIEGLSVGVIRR
T1 sequence (P37452 2-204 S125A): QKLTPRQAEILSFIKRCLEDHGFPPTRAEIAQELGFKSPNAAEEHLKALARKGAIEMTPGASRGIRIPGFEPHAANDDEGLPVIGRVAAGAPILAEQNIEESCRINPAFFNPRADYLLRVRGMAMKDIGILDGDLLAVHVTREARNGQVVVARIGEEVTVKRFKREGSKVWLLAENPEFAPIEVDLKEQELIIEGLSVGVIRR

Consider `O=C(O)CCNc1ccccc1S` [A12, 3-(2-sulfanylanilino)propanoic acid], for which the Kd in data set [1] was 7.4 ± 0.5 µM. Further, the “Mass difference of A12-modified LexAPa versus unmodified protein” value in data set [2] was determined as 195 Da. Also, the “Cell viability compared to the untreated control” value in data set [3] is “higher than 80%”. Further, the “Intracellular (internalized) burden of PAO1 in THP-1-derived macrophages” value was “reduced the internalized bacterial growth” in data set [4] (A12 100 μg/mL alone); “synergized with ciprofloxacin” in data set [4] (combination of ciprofloxacin 0.5 μg/mL and A12 100 μg/mL). Further, in data set [4] (single agent: ciprofloxacin 0.5 μg/mL or A12 100 μg/mL, 3 h infection), the “Total (adherent + intracellular) burden of PAO1 on THP-1-derived macrophages” value is reported as “diminished”.
